Experimental data published in the supplement of paper PMC10307832.

How the values were obtained:
Assay in all cases: relative viability (nuclei count vs DMSO), 5 days (fraction); higher = more cells survive
[1] = compound: O=S(=O)(c1ccccc1)N(CC(F)(F)F)c1ccc(C(O)(C(F)(F)F)C(F)(F)F)cc1 + C[C@]1(O)C[C@@H](c2nc(-c3ccc4ccc(-c5ccccc5)nc4c3)c3c(N)nccn32)C1 [Linsitinib] (partner 1 µM)
Method in brief: (§1)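 Lung cancer cell lines were seeded in 1536-well plates and dosed by pin tool the next day, with either a single drug or a fixed anchor-drug dose combined with five library-drug doses (not always all listed) spaced in √10 steps. Five days later, one step fixed the cells and stained their nuclei (final 0.05% Triton X-100, 1% formaldehyde, 1 ug/ml Hoechst), and nuclei were counted on 4× images. Relative viability is the nuclei count in treated wells divided by the count in vehicle wells, and each value is the median of duplicate plates.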

[2] = compound: O=S(=O)(c1ccccc1)N(CC(F)(F)F)c1ccc(C(O)(C(F)(F)F)C(F)(F)F)cc1 + O=C(c1cc(Cc2n[nH]c(=O)c3ccccc23)ccc1F)N1CCN(C(=O)C2CC2)CC1 [Olaparib] (partner 8 µM)
Method in brief: as §1

[3] = compound: O=S(=O)(c1ccccc1)N(CC(F)(F)F)c1ccc(C(O)(C(F)(F)F)C(F)(F)F)cc1 + Nc1nc2[nH]cc(CCc3ccc(C(=O)N[C@@H](CCC(=O)O)C(=O)O)cc3)c2c(=O)[nH]1 [Pemetrexed] (partner 0.2 µM)
Method in brief: as §1

RO-3306 + Tozasertib = compound: C1=CC2=C(C=CC(=C2)C=C3C(=O)NC(=NCC4=CC=CS4)S3)N=C1 [RO-3306] + Cc1cc(Nc2cc(N3CCN(C)CC3)nc(Sc3ccc(NC(=O)C4CC4)cc3)n2)n[nH]1 [Tozasertib] (partner 0.1 µM)
Method in brief: as §1

[4] = compound: O=S(=O)(c1ccccc1)N(CC(F)(F)F)c1ccc(C(O)(C(F)(F)F)C(F)(F)F)cc1 + CCNC(=O)c1noc(-c2cc(C(C)C)c(O)cc2O)c1-c1ccc(CN2CCOCC2)cc1 [Luminespib] (partner 0.01 µM)
Method in brief: as §1

Cell Line	relative viability ([1]; first compound 0.8 µM)	relative viability ([1]; first compound 2.53 µM)	relative viability ([1]; first compound 8 µM)	relative viability ([2]; first compound 0.8 µM)	relative viability ([2]; first compound 2.53 µM)	relative viability ([2]; first compound 8 µM)	relative viability ([3]; first compound 0.8 µM)	relative viability ([3]; first compound 2.53 µM)	relative viability ([3]; first compound 8 µM)	relative viability (RO-3306 + Tozasertib; first compound 0.01 µM)	relative viability (RO-3306 + Tozasertib; first compound 0.03162 µM)	relative viability (RO-3306 + Tozasertib; first compound 0.1 µM)	relative viability (RO-3306 + Tozasertib; first compound 0.3162 µM)	relative viability (RO-3306 + Tozasertib; first compound 1 µM)	relative viability ([4]; first compound 0.8 µM)	relative viability ([4]; first compound 2.53 µM)	relative viability ([4]; first compound 8 µM)
NCI-H3122	0.988	0.894	1.11	0.678	0.599	0.654	0.209	0.19	0.201	0.449	0.413	0.42	0.475	0.284	0.0579	0.0537	0.115
LC-2-ad	0.701	0.831	0.816	0.689	0.675	0.674	0.274	0.286	0.244	0.433	0.404	0.44	0.485	0.404	0.898	0.892	0.864
NCI-H650	0.739	0.761	0.938	0.405	0.387	0.359	0.841	0.992	0.851	0.682	0.695	0.718	0.739	0.603	1.01	0.854	0.853
LXF-289	0.929	0.795	0.821	1.03	0.91	1.04	0.883	0.82	0.86	0.216	0.199	0.187	0.181	0.199	0.858	0.559	0.641
